Experimental data taken from patent publication US11840731B2, “Method for diagnosing and treating subjects having single nucleotide polymorphisms in chromosome 2, 2:107,510,000-107,540,000 locus” (NEURIM PHARMACEUTICALS (1991) LTD., priority 2021, dated 2023).
Marks after values point to notes of the source that are not given here.

Experiments:
5-HT1d = test: functional assay; format: cell-based; details: 5-H 1d
[1] = system: patients with early symptomatic Alzheimer's disease; test: computerized Neuropsychological Test Battery (cNTB), randomized placebo controlled study; format: in vivo, human
5-HT-1b receptor = biological target: T1, 5-HT-1b receptor (Rattus norvegicus, UniProt P28564); test: receptor binding assay, radioligand 125I CYP, rat cerebral cortex; details: 5-HT1B
T1 construct: from tissue; host or cells: rat cerebral cortex
T1 sequence (P28564 whole entry): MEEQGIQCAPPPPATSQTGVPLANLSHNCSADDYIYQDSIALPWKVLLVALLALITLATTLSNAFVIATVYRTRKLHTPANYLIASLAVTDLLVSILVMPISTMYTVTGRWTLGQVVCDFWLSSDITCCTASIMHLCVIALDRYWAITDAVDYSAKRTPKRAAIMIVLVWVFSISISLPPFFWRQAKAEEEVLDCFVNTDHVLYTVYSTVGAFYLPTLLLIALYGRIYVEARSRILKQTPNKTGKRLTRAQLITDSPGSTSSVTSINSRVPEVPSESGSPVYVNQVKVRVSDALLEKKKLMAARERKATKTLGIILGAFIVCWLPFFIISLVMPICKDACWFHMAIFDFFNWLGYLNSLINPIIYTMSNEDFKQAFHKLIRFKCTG
Experimental: (§1) For receptor binding assays, stably expressing 5-HT1a, 1b, 1d and 2c receptors cells (HEK-293, rat cerebral cortex, CHO and HEK-293, respectively) were incubated with 0.3 or 1 nM of their respective radioligand (^3H-OH-DPAT, ^125I CYP, ^3H serotonin and ^3H-mesulergine) alone or in the presence of 1 nM to 10 μM of piromelatine. The bound radioligand was assessed. Non-specific binding was evaluated under the reaction contained with 8-OH-PTA, serotonin and RS-10221 (8-[5-(2,4-Dimethoxy-5-(4-trifluoromethylphenylsulphonamido)phenyl-5-oxopentyl]-1,3,8-triazaspiro[4.5]decane-2,4-dione hydrochloride).

5-HT-2b receptor = 5-HT-2b receptor (Homo sapiens, UniProt P41595); test: receptor binding assay; details: 5-HT2B
Sequence of 5-HT-2b receptor (P41595 whole entry): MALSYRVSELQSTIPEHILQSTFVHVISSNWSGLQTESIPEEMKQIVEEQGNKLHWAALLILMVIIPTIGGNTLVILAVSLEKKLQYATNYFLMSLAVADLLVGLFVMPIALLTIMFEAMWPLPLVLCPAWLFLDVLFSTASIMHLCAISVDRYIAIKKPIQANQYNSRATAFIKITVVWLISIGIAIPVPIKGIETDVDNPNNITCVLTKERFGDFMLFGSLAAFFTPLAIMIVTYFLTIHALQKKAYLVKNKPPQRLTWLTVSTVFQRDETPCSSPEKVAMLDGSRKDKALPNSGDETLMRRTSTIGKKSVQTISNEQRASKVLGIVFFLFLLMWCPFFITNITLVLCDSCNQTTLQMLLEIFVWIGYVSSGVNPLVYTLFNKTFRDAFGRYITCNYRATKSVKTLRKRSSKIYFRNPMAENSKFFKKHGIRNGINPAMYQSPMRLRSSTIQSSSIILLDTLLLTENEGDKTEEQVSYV

[2] = system: patients with early symptomatic Alzheimer's disease; test: neuropsychiatric inventory (NPI), randomized placebo controlled study; format: in vivo, human; details: for NPI Improvement: 20 mg daily for 26 weeks
5-HT1a [3] = biological target: T2, 5-HT1a (Homo sapiens, UniProt P08908); test: functional assay, HTRF (cAMP or IP1); format: cell-based
T2 sequence (P08908 1-422): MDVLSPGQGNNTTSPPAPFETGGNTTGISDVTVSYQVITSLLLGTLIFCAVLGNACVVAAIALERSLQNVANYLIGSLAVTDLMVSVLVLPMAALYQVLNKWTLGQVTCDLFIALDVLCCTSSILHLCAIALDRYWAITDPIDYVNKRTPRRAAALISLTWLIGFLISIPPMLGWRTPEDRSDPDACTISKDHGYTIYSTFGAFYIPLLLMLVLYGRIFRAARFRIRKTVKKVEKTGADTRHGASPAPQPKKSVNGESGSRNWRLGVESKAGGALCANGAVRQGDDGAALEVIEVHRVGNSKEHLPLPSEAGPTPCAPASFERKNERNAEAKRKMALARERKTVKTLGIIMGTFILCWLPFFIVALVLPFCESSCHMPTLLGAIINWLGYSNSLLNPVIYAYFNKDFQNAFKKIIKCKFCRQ
From the text: (§2) For the functional assay, Homogeneous Time Resolved Fluorescence (HTRF) was used to measure cAMP or IP1 as products of the functional agonist or antagonist binding of 5-HT1a, 2a,2b, 2c, 4e, 6, 7 to their respective ligand (8-OG-DPAT or serotonin). Cellular dielectric spectroscopy was used to measure impedance as the product of the functional agonist or antagonist binding of 5HT1b and determine their respective ligand (serotonin).

5-HT-2c receptor = biological target: T3, 5-HT-2c receptor (Homo sapiens, UniProt P28335); test: receptor binding assay, radioligand 3H-mesulergine, HEK-293 cells; details: 5-HT2C
T3 construct: expressed in transfected cells; host or cells: HEK-293
T3 sequence (P28335 33-458): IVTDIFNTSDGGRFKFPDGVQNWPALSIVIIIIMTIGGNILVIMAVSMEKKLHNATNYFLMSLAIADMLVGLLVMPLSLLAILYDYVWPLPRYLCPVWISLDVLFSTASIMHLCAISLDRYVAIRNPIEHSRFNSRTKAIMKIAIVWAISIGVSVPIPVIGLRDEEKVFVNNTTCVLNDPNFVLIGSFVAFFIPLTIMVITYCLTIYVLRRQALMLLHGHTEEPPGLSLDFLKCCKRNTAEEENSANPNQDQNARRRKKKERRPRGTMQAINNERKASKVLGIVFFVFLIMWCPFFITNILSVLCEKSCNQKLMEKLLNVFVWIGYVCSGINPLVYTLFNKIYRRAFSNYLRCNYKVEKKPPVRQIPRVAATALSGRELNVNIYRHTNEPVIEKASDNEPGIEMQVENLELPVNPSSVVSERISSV
Experimental: as §1

[4] = system: patients with early symptomatic Alzheimer's disease; test: computerized Neuropsychological Test Battery (cNTB), randomized placebo controlled study; format: in vivo, human; set-up: key to cNTB Improvement: ns = non-significant effect; deter = deterioration compared to placebo; details: for cNTB: 5, 20 and 50 mg daily for 26 weeks, change from baseline
Experimental: DNA extraction and SNP genotyping were performed as follows: For 107 patients, whole blood was collected at the time of enrollment, and genomic DNA was extracted from peripheral lymphocytes using a commercial kit. Variant genotyping of a combined Whole Genome and Whole Exome sequencing, was performed. The detection of variants associated with the response of the treatment was performed through a genome wide association study (GWAS) analysis (which is a known case-control paradigm). […] The general case-control allelic test was performed through a Cochran-Armitage trend test. […] The stratification was assessed by a complete-linkage hierarchical clustering using the pairwise population concordance as a constraint. The SNP calling was done on the aligned BAM files using DRAGEN: […]

5-HT1a [5] = biological target: T2, 5-HT1a; test: receptor binding assay, radioligand 3H-OH-DPAT, HEK-293 cells; set-up: expressed in transfected cells; host or cells: HEK-293; details: 5-HT1A
Experimental: as §1

[6] = system: patients with early symptomatic Alzheimer's disease; test: sleep quality index (PSQI), randomized placebo controlled study; format: in vivo, human; details: non-carriers (N = 23); 20 mg daily for 26 weeks
5-HT-2a receptor = 5-HT-2a receptor (Homo sapiens, UniProt P28223); test: receptor binding assay; details: 5-HT2A
Sequence of 5-HT-2a receptor (P28223 whole entry): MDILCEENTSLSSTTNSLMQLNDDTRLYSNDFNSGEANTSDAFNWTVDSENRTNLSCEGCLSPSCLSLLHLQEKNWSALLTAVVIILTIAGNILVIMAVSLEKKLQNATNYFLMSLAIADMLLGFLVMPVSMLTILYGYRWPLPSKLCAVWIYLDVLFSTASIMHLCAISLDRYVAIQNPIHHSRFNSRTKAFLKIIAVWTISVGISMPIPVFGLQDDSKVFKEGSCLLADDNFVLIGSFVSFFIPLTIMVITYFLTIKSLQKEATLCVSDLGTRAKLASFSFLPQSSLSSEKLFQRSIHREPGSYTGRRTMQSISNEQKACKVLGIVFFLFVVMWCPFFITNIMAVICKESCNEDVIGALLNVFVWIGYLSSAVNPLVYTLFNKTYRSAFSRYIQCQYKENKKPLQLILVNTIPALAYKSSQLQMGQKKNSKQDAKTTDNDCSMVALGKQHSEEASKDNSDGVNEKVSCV

[7] = system: 60 different ion channels and receptors of different neurotransmitters and hormones; test: full profile of binding parameters, 60 receptor assays; details: 10 μM; none of the 60 receptor assays significant
Experimental: A full profile of binding parameters to an additional 60 different ion channels and receptors of different neurotransmitters and hormones was performed (data not shown because none of the 60 receptor assays yielded a significant (>50%) inhibition by 10 μM of piromelatine).

5HT1b = 5HT1b (Homo sapiens, UniProt P28222); test: functional assay, cellular dielectric spectroscopy (impedance); format: cell-based
Sequence of 5HT1b (P28222 whole entry, species assumed): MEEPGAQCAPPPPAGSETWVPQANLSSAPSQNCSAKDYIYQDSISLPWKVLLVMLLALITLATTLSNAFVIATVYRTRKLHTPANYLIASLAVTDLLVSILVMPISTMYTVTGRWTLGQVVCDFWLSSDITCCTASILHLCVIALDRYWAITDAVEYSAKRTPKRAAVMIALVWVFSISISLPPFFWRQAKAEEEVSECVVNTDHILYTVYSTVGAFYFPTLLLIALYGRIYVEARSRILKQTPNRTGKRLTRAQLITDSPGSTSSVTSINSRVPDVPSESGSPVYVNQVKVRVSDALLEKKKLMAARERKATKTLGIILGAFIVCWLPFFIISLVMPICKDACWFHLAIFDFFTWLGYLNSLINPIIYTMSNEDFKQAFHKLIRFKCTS
From the text: as §2

[8] = system: patients with early symptomatic Alzheimer's disease; test: Alzheimer's Disease Assessment Scale cognitive subscale (ADAS-Cog14), randomized placebo controlled study; format: in vivo, human; set-up: key to ADAS-Cog14 Improvement: ns = non-significant effect; deter = deterioration compared to placebo
[9] = whole study, n=352, 5, 20, and 50 mg daily for 6 months
[10] = locus polymorphism carriers, 5, 20 and 50 mg, 26 weeks, N = 19, vs placebo
[11] = locus polymorphism non-carriers, 5, 20 and 50 mg, 26 weeks, N = 59, vs placebo

## COc1ccc2[nH]cc(CCNC(=O)c3cc(=O)cco3)c2c1 [piromelatine, N-(2-(5-methoxy-1H-indol-3-yl)ethyl)-4-oxo-4H-pyran-2-carboxamide]
5-HT1d
  agonist activity: moderate agonist activity
[1]; carriers, 20 mg
  cNTB attention domain composite score: improved
[1]; [9]
  global composite score of the cNTB, drug vs placebo: no statistically significant differences
5-HT-1b receptor
  affinity in words: low affinity
5-HT-2b receptor
  affinity in words: low affinity
[2]; carriers (N = 12)
  NPI Improvement: yes
[2]; carriers, 20 mg
  NPI aberrant movements: improvement
[2]; non-carriers (N = 23)
  NPI Improvement: yes
5-HT1a [3]
  agonist activity: moderate agonist activity
5-HT-2c receptor
  affinity in words: low affinity
[4]; carriers (N = 12), 20 mg daily for 26 weeks
  cNTB Improvement: yes
[4]; carriers, 5 mg
  cNTB attention domain composite score: improved
  cNTB episodic memory domain composite score: improved
[4]; carriers, 20 mg
  cNTB episodic memory domain composite score: improved
[4]; locus polymorphism carriers, N = 19
  cNTB: 0.38*
[4]; [10]
  cNTB Improvement: yes
[4]; locus polymorphism non-carriers, N = 59
  cNTB: −0.04
[4]; [11]
  cNTB Improvement: ns
5-HT1a [5]
  affinity in words: low affinity
[6]
  PSQI Improvement: yes
5-HT-2a receptor
  affinity in words: low affinity
[7]
  inhibition: ≤ 50%
5HT1b
  agonist activity: Low agonist activity
[8]; carriers, 5 mg daily for 26 weeks
  ADAS Cog14, Cohen's d vs placebo > 0.2: improvement
[8]; locus polymorphism carriers, 5, 20 and 50 mg daily for 26 weeks, N = 19
  ADAS-Cog14: 0.63*
[8]; [10]
  ADAS-Cog14 Improvement: deter
[8]; [11]
  ADAS-Cog14 Improvement: yes
[8]; non-carriers (N = 23), 20 mg daily for 26 weeks
  ADAS-Cog14 Improvement: yes
[8]; non-carriers, 5 mg daily for 26 weeks
  ADAS Cog14, Cohen's d vs placebo > 0.20: no improvement
[8]; [9]
  ADAS-Cog14, drug vs placebo: no statistically significant differences
